Values quoted from earlier work, collected in patent publication EP4628546A1, “CYANINE DIMERS FOR PHOTOTHERMAL TREATMENT OF CANCER GUIDED BY FLUORESCENCE/PHOTOACOUSTIC IMAGING” (Centre National de la Recherche Scientifique, priority 2024, dated 2025).

Conditions: IR 780 in EtOH, reference value

For `CCCN1/C(=C/C=C2\CCCC(/C=C/C3=[N+](CCC)c4ccccc4C3(C)C)=C2Cl)C(C)(C)c2ccccc21.[I-]` [IR 780], the “Φfluo,ref” value is given as 0.08.
